Laboratory results reported in ChEMBL document CHEMBL1201862, “PubChem BioAssay data set” (2004).
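Dose response: 5 concentrations. Exposure: 48 h. Format: 96-well plates. Endpoint: linear interpolation; highest concentration if not reached. Abbreviation: GI50, concentration required for 50% inhibition of growth.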 Active and inactive are the calls of the source. Cut-off read from the data, not from the text of the source: active = GI50 up to about 1.1 µM and inactive = higher.

Columns and labels:
Assay in all cases: DTP human tumour cell line panel, 48 h
LOX IMVI = tested on: LOX IMVI
Hs-578T = tested on: Hs-578T
UACC-257 = tested on: UACC-257
TK-10 = tested on: TK-10
HCT-15 = tested on: HCT-15
HT-29 = tested on: HT-29
RPMI-8226 = tested on: RPMI-8226
UACC-62 = tested on: UACC-62
SK-OV-3 = tested on: SK-OV-3
A498 = tested on: A498
DU-145 = tested on: DU-145
Malme-3M = tested on: Malme-3M
UO-31 = tested on: UO-31
ACHN = tested on: ACHN
NCI-H522 = tested on: NCI-H522
NCI-H226 = tested on: NCI-H226
HOP-92 = tested on: HOP-92
U-251 = tested on: U-251
A549 = tested on: A549
SNB-75 = tested on: SNB-75
BT-549 = tested on: BT-549
HCC 2998 = tested on: HCC 2998
HOP-62 = tested on: HOP-62
MOLT-4 = tested on: MOLT-4
SF-539 = tested on: SF-539
SK-MEL-2 = tested on: SK-MEL-2
SF-268 = tested on: SF-268
NCI-H460 = tested on: NCI-H460
CAKI-1 = tested on: CAKI-1
PC-3 = tested on: PC-3
MDA-MB-435 = tested on: MDA-MB-435
OVCAR-3 = tested on: OVCAR-3
SF-295 = tested on: SF-295
SK-MEL-28 = tested on: SK-MEL-28
MCF7 = tested on: MCF7
HCT-116 = tested on: HCT-116
COLO 205 = tested on: COLO 205
MDA-MB-231 = tested on: MDA-MB-231
SNB-19 = tested on: SNB-19
OVCAR-8 = tested on: OVCAR-8
MDA-N = tested on: MDA-N
SN12C = tested on: SN12C
RXF 393 = tested on: RXF 393
K562 = tested on: K562
SK-MEL-5 = tested on: SK-MEL-5
IGROV-1 = tested on: IGROV-1
786-0 = tested on: 786-0
NCI-H23 = tested on: NCI-H23
OVCAR-4 = tested on: OVCAR-4
EKVX = tested on: EKVX
HL-60 = tested on: HL-60
SW-620 = tested on: SW-620
KM12 = tested on: KM12
T47D = tested on: T47D
NCI/ADR-RES = tested on: NCI/ADR-RES
CCRF-CEM = tested on: CCRF-CEM
OVCAR-5 = tested on: OVCAR-5
M14 = tested on: M14
SR = tested on: SR

COc1cc(C2c3cc4c(cc3OC(NCCO)C2C)OCO4)cc(OC)c1OC (configuration not stated)
GI50 (LOX IMVI): 0.42 µM (active)
GI50 (Hs-578T): 0.325 µM (active)
GI50 (UACC-257): 1.61 µM (inactive)
GI50 (TK-10): 15.9 µM (inactive)
GI50 (HCT-15): 0.347 µM
GI50 (HT-29): 0.369 µM (active)
GI50 (RPMI-8226): 0.389 µM (active)
GI50 (UACC-62): 0.378 µM (active)
GI50 (SK-OV-3): 0.553 µM (active)
GI50 (A498): 0.325 µM (active)
GI50 (DU-145): 0.678 µM (active)
GI50 (Malme-3M): 0.431 µM (active)
GI50 (UO-31): 1.52 µM (inactive)
GI50 (ACHN): 0.755 µM (active)
GI50 (NCI-H522): 0.241 µM (active)
GI50 (NCI-H226): 0.644 µM (active)
GI50 (HOP-92): 0.188 µM (active)
GI50 (U-251): 0.406 µM (active)
GI50 (A549): 0.762 µM (active)
GI50 (SNB-75): 1.12 µM (inactive)
GI50 (BT-549): 3.66 µM (inactive)
GI50 (HCC 2998): 0.824 µM (active)
GI50 (HOP-62): 0.289 µM (active)
GI50 (MOLT-4): 0.489 µM (active)
GI50 (SF-539): 0.232 µM (active)
GI50 (SK-MEL-2): 3.42 µM (inactive)
GI50 (SF-268): 2.05 µM (inactive)
GI50 (NCI-H460): 0.409 µM (active)
GI50 (CAKI-1): 0.485 µM (active)
GI50 (PC-3): 0.418 µM (active)
GI50 (MDA-MB-435): 0.0927 µM (active)
GI50 (OVCAR-3): 0.244 µM (active)
GI50 (SF-295): 0.274 µM (active)
GI50 (SK-MEL-28): 0.713 µM (active)
GI50 (MCF7): 0.344 µM (active)
GI50 (HCT-116): 0.364 µM (active)
GI50 (COLO 205): 0.526 µM (active)
GI50 (MDA-MB-231): 1.6 µM (inactive)
GI50 (SNB-19): 1.32 µM (inactive)
GI50 (OVCAR-8): 2.2 µM (inactive)
GI50 (MDA-N): 0.401 µM (active)
GI50 (SN12C): 0.658 µM (active)
GI50 (RXF 393): 0.426 µM (active)
GI50 (K562): 0.195 µM (active)
GI50 (SK-MEL-5): 0.323 µM (active)
GI50 (IGROV-1): 0.687 µM (active)
GI50 (786-0): 1.8 µM (inactive)
GI50 (NCI-H23): 1.19 µM (inactive)
GI50 (OVCAR-4): 12.7 µM (inactive)
GI50 (EKVX): 13.1 µM (inactive)
GI50 (HL-60): 0.309 µM (active)
GI50 (SW-620): 0.326 µM (active)
GI50 (KM12): 0.382 µM (active)
GI50 (T47D): > 74.3 µM (inactive)
GI50 (NCI/ADR-RES): 0.807 µM (active)
GI50 (CCRF-CEM): 0.197 µM (active)
GI50 (OVCAR-5): 7.48 µM (inactive)
GI50 (M14): 0.27 µM (active)
GI50 (SR): 0.248 µM (active)

COC(=O)c1c(O)ccc2c1c1c(n2Cc2cc(OC)cc(OC)c2)C(=O)c2ccccc2C1=O
GI50 (LOX IMVI): 8.67 µM (inactive)
GI50 (Hs-578T): 7.55 µM (inactive)
GI50 (UACC-257): 23.9 µM (inactive)
GI50 (TK-10): 13 µM (inactive)
GI50 (HCT-15): 3.93 µM
GI50 (HT-29): 2.44 µM (inactive)
GI50 (RPMI-8226): 2.99 µM (inactive)
GI50 (SK-OV-3): 6.52 µM (inactive)
GI50 (A498): 54.2 µM (inactive)
GI50 (DU-145): 21 µM (inactive)
GI50 (Malme-3M): 6.34 µM (inactive)
GI50 (UO-31): 4.56 µM (inactive)
GI50 (ACHN): 5.04 µM (inactive)
GI50 (NCI-H522): 3.03 µM (inactive)
GI50 (NCI-H226): 14.7 µM (inactive)
GI50 (HOP-92): 4.92 µM (inactive)
GI50 (U-251): 8.26 µM (inactive)
GI50 (A549): 5.07 µM (inactive)
GI50 (SNB-75): 14.1 µM (inactive)
GI50 (BT-549): 6.71 µM (inactive)
GI50 (HCC 2998): 2.72 µM (inactive)
GI50 (HOP-62): 9.29 µM (inactive)
GI50 (MOLT-4): 4.42 µM (inactive)
GI50 (SF-539): 11.5 µM (inactive)
GI50 (SK-MEL-2): 10.9 µM (inactive)
GI50 (SF-268): 8.32 µM (inactive)
GI50 (NCI-H460): 3.75 µM (inactive)
GI50 (CAKI-1): 18.7 µM (inactive)
GI50 (PC-3): 4.39 µM (inactive)
GI50 (MDA-MB-435): 2.67 µM (inactive)
GI50 (OVCAR-3): 7.87 µM (inactive)
GI50 (SF-295): 11.4 µM (inactive)
GI50 (SK-MEL-28): 13.7 µM (inactive)
GI50 (MCF7): 4.63 µM (inactive)
GI50 (HCT-116): 4.74 µM (inactive)
GI50 (COLO 205): 1.86 µM (inactive)
GI50 (MDA-MB-231): 7.13 µM (inactive)
GI50 (SNB-19): 24.4 µM (inactive)
GI50 (OVCAR-8): 3.72 µM (inactive)
GI50 (MDA-N): 3.85 µM (inactive)
GI50 (SN12C): 6.03 µM (inactive)
GI50 (RXF 393): 8.32 µM (inactive)
GI50 (K562): 5.28 µM (inactive)
GI50 (SK-MEL-5): 8.83 µM (inactive)
GI50 (IGROV-1): 5.06 µM (inactive)
GI50 (786-0): 7.74 µM (inactive)
GI50 (NCI-H23): 8.28 µM (inactive)
GI50 (OVCAR-4): 9.93 µM (inactive)
GI50 (EKVX): 11.6 µM (inactive)
GI50 (HL-60): 7.5 µM (inactive)
GI50 (SW-620): 9.51 µM (inactive)
GI50 (KM12): 3.23 µM (inactive)
GI50 (T47D): 10.9 µM (inactive)
GI50 (NCI/ADR-RES): 4.06 µM (inactive)
GI50 (CCRF-CEM): 3.7 µM (inactive)
GI50 (OVCAR-5): 21 µM (inactive)
GI50 (M14): 8.13 µM (inactive)
GI50 (SR): 2.44 µM (inactive)
